The values below come from ChEMBL document CHEMBL1127421, “The synthesis and in vitro evaluation of a 99mtechnetium-nitroimidazole complex based on a bis(amine-phenol) ligand: comparison to BMS-181321” (J Med Chem, 1994).

The species entered for data set [1] is Rattus norvegicus. The data set can be described thus: In vitro evaluation of efficacy of BAPN in isolated cardiac myocytes under anoxic/oxic conditions. It counts as functional, cell-based.
Data set [2] is filed under the species Rattus norvegicus. As to the kind of experiment: In vitro evaluation of efficacy of BAPN in isolated cardiac myocytes under normoxia condition. The class given is functional, cell-based.
The species named for data set [3] is Rattus norvegicus. As to the kind of experiment: Ratio in isolated cardiac myocytes under anoxic/oxic conditions. It counts as functional, cell-based.
Another data set is filed under the species Bos taurus. As to the kind of experiment: Compound was evaluated for permeability index in cultured bovine endothelial cell monolayer system. As to conditions: cattle. It counts as ADME.
The species entered for data set [4] is Rattus norvegicus. The data set can be described thus: In vitro evaluation of efficacy of BAPN in isolated cardiac myocytes under anoxia condition. It counts as functional, cell-based.

With 99m Tc-BMS 181321 [listing 1 of 2 here], the Ratio stood at 3.03 in the data set filed under Rattus norvegicus [1] and 3.03% in the data set listed under Rattus norvegicus [3]. The same substance gave a Retention in the data set listed under Rattus norvegicus [2] of 17.6%.
Substance 99m Tc-BAPN [listing 1 of 2 here] yielded a Permeability index in the data set filed under Bos taurus of -0.25 Pi.
Take 99m Tc-BAPN [listing 2 of 2 here]: the Retention in the data set filed under Rattus norvegicus [2] came out at 38.2%; in the data set listed under Rattus norvegicus [4], 41.4%. Further, the Ratio in the data set filed under Rattus norvegicus [3] amounted to 1.08.
With 99m Tc-BMS 181321 [listing 2 of 2 here], the Permeability index in the data set listed under Bos taurus came to 63.2 Pi.
